Measurements from the supplement of paper PMC10307832.

Legend:
Assay in all cases: relative viability (nuclei count vs DMSO), 5 days (fraction); higher = more cells survive
[1] = compound: C1=CC2=C(C=C(C(=C2N=C1)O)N=NC3=CC4=C(C=C3)C=C(C=C4)S(=O)(=O)O)S(=O)(=O)O + CC(C)C[C@H](NC(=O)[C@H](Cc1ccccc1)NC(=O)c1cnccn1)B(O)O [Bortezomib] (partner 0.002 µM)
How it was run: (§1)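 Lung cancer cell lines were seeded in 1536-well plates and dosed by pin tool the next day, with either a single drug or a fixed anchor-drug dose combined with five library-drug doses (not always all listed) spaced in √10 steps. Five days later, one step fixed the cells and stained their nuclei (final 0.05% Triton X-100, 1% formaldehyde, 1 ug/ml Hoechst), and nuclei were counted on 4× images. Relative viability is the nuclei count in treated wells divided by the count in vehicle wells, and each value is the median of duplicate plates.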

[2] = compound: C1=CC2=C(C=C(C(=C2N=C1)O)N=NC3=CC4=C(C=C3)C=C(C=C4)S(=O)(=O)O)S(=O)(=O)O + CS(=O)(=O)N1CCN(Cc2cc3nc(-c4cccc5[nH]ncc45)nc(N4CCOCC4)c3s2)CC1 [Pictilisib] (partner 1 µM)
How it was run: as §1

[3] = compound: C1=CC2=C(C=C(C(=C2N=C1)O)N=NC3=CC4=C(C=C3)C=C(C=C4)S(=O)(=O)O)S(=O)(=O)O + O=C(c1cc(Cc2n[nH]c(=O)c3ccccc23)ccc1F)N1CCN(C(=O)C2CC2)CC1 [Olaparib] (partner 8 µM)
How it was run: as §1

AT-7519 + Dasatinib = compound: O=C(NC1CCNCC1)c1n[nH]cc1NC(=O)c1c(Cl)cccc1Cl [AT-7519] + Cc1nc(Nc2ncc(C(=O)Nc3c(C)cccc3Cl)s2)cc(N2CCN(CCO)CC2)n1 [Dasatinib] (partner 0.075 µM)
How it was run: as §1

Cell Line	relative viability ([1]; first compound 0.08 µM)	relative viability ([1]; first compound 0.253 µM)	relative viability ([1]; first compound 0.8 µM)	relative viability ([1]; first compound 2.53 µM)	relative viability ([1]; first compound 8 µM)	relative viability ([2]; first compound 0.08 µM)	relative viability ([2]; first compound 0.253 µM)	relative viability ([2]; first compound 0.8 µM)	relative viability ([2]; first compound 2.53 µM)	relative viability ([2]; first compound 8 µM)	relative viability ([3]; first compound 0.08 µM)	relative viability ([3]; first compound 0.253 µM)	relative viability ([3]; first compound 0.8 µM)	relative viability ([3]; first compound 2.53 µM)	relative viability ([3]; first compound 8 µM)	relative viability (AT-7519 + Dasatinib; first compound 0.01 µM)	relative viability (AT-7519 + Dasatinib; first compound 0.03162 µM)	relative viability (AT-7519 + Dasatinib; first compound 0.3162 µM)	relative viability (AT-7519 + Dasatinib; first compound 1 µM)
LOU-NH91	0.504	0.477	0.51	0.498	0.496	0.57	0.523	0.539	0.486	0.524	1.01	0.907	0.927	0.881	0.919	0.613	0.6	0.604	0.511
LU99A	1.27	1.13	1.04	0.986	1.29	0.391	0.314	0.251	0.297	0.37	0.264	0.282	0.286	0.257	0.243	0.609	0.574	0.468	0.536
LXF-289	0.95	0.96	0.986	0.986	0.945	0.874	0.684	0.73	0.793	0.8	1.26	1	0.973	1.05	1.03	0.219	0.232	0.222	0.235
NCI-H23	1.06	0.82	1.08	1.06	0.897	0.516	0.514	0.365	0.45	0.585	0.27	0.339	0.343	0.324	0.359	0.681	0.715	0.811	0.438
NCI-H322M	1.26	1.11	1.22	1.32	1.28	0.505	0.473	0.444	0.442	0.524	0.733	0.705	0.691	0.78	0.834	0.257	0.257	0.226	0.275
NCI-H441	0.576	0.385	–	0.484	0.718	0.475	0.49	0.37	0.528	0.498	0.617	0.57	0.586	0.531	0.595	0.574	0.654	0.421	0.324
NCI-H460	1.39	1.04	0.99	1.19	1.09	0.356	0.366	0.336	0.344	0.104	0.537	0.356	0.444	0.43	0.425	0.545	0.558	0.438	0.243
NCI-H520	0.777	0.598	0.619	0.551	0.459	0.298	0.282	0.332	0.26	0.269	0.327	0.342	0.337	0.301	0.387	0.244	0.241	0.174	0.166
NCI-H596	1.43	1.16	0.974	1.02	0.769	0.408	0.385	0.377	0.428	0.417	0.7	0.798	0.639	0.746	0.747	0.586	0.501	0.629	0.612
NCI-H647	1.2	1.08	0.97	0.953	1.19	0.357	–	0.436	0.505	0.394	0.516	0.48	0.522	0.65	0.545	0.184	0.23	0.195	0.131
NCI-H650	0.782	0.748	0.94	0.758	0.614	0.907	0.859	0.909	0.92	0.833	0.458	0.404	0.386	0.384	0.402	0.437	0.423	0.465	0.488
NCI-H661	0.838	0.838	0.769	0.829	0.809	0.372	0.345	0.359	0.517	0.353	0.744	0.744	0.831	0.761	0.72	0.732	0.849	0.71	0.392
NCI-H727	0.917	0.945	0.854	0.853	0.816	0.591	0.311	0.217	0.358	0.482	0.635	0.676	0.684	0.859	0.665	0.392	0.401	0.257	0.135
NCI-H838	0.753	0.909	0.674	0.633	0.764	0.42	0.42	0.437	0.417	0.518	0.781	0.739	0.743	0.777	0.77	0.298	0.285	0.259	0.249
NCI-H1355	1.22	1.22	1.15	1.23	1.29	0.423	0.433	0.401	0.473	0.441	0.736	0.717	0.748	0.728	0.711	0.747	0.633	0.602	0.784
NCI-H1437	0.578	0.509	0.483	0.414	0.4	0.489	0.419	0.47	0.507	0.56	0.617	0.611	0.655	0.638	0.613	0.444	0.424	0.377	0.486
NCI-H1650	0.196	0.212	0.22	0.193	0.202	0.645	0.587	0.529	0.648	0.596	0.825	0.677	0.781	0.812	0.894	0.32	0.293	0.22	0.164
NCI-H1651	0.942	0.903	0.894	0.963	0.755	0.777	0.517	0.489	0.593	0.563	0.187	0.176	0.196	0.208	0.181	0.396	0.304	0.406	0.292
NCI-H1666	0.874	0.658	0.799	0.859	0.658	0.459	0.383	0.358	0.42	0.479	0.863	0.754	0.762	0.745	0.712	0.744	0.75	0.75	0.593
NCI-H1734	1.07	0.885	0.863	1.09	0.978	0.565	0.434	0.426	0.492	0.455	0.609	0.588	0.697	0.642	0.624	0.445	0.421	0.391	0.31
NCI-H1755	1.08	0.962	0.934	0.95	0.958	0.407	0.44	0.446	0.47	0.246	0.913	0.864	0.831	0.964	0.874	0.465	0.404	0.465	0.409
NCI-H1792	1.09	0.931	0.886	0.976	0.908	0.304	0.26	0.295	0.286	0.302	0.579	0.253	0.355	0.507	0.432	–	–	0.845	0.654
NCI-H1915	1.02	0.957	0.92	0.892	0.935	0.883	0.97	0.856	0.95	0.952	0.25	0.286	0.256	0.258	0.258	0.215	0.316	0.334	0.274
NCI-H1975	0.389	0.385	0.377	0.327	0.42	0.327	0.299	0.268	0.305	0.286	0.868	0.854	0.772	0.795	0.824	0.341	0.341	0.384	0.127
NCI-H1993	1.08	1.07	1.28	1.3	0.977	0.887	0.802	0.938	0.921	0.782	1.03	0.931	1.18	1.09	1.1	0.626	0.516	0.441	0.312
NCI-H2009	0.909	0.921	0.965	0.968	0.916	0.789	0.82	0.757	0.747	0.761	0.656	0.663	0.681	0.743	0.711	0.282	0.279	0.234	0.157
NCI-H2023	0.945	0.945	1.01	1.15	0.978	0.218	0.261	0.257	0.251	0.298	0.509	0.443	0.442	0.528	0.416	0.636	0.548	0.485	0.231
NCI-H2085	1.23	1.05	1.01	1.11	0.953	0.38	0.465	0.406	0.571	0.497	0.866	0.757	0.811	0.757	0.722	0.219	0.242	0.256	0.218
